From patent US20250108119A1, “NOVEL STEROID PAYLOADS, STEROID LINKERS, ADCs CONTAINING AND USE THEREOF” (IMMUNEXT, INC., priority 2021, published 2025)

How the values were obtained:
[1] = test system: LPS stimulated human PBMCs; assay: LPS stimulated human PBMC, IL-1β and IL-6 ELISA; type: cell-based; settings: for inhibition of IL-1β and IL-6 production / inhibition of IL-1β production: 24 hr
Method: The potency of novel steroids was assessed in a model of LPS stimulated human peripheral blood mononuclear cells (PBMCS). Stimulated PBMCs in this assay produce multiple pro-inflammatory cytokines1.
In all the following experiments, human PBMC, isolated from 1-2 healthy donors per study, were stimulated with LPS to induce cytokine production.
LPS was added either immediately after addition of free payload, or in the case of conjugates, four hours after addition of the conjugate.
Cells were plated in flat bottom 96 well plates at a final concentration of 150,000 cells/well, with technical duplicates for each condition.
Test agents were serially diluted in the assay media and added to a final concentration of 1,000 nM-1 nM or 0.2 nM depending on the assay or as a no treatment control.
LPS stimulation was added to a final concentration of 1 ng/ml.
Human IL-1β and IL-6 ELISA kits were used on supernatants according to vendor protocols. All graphs were prepared with GraphPad (Prism).

human PBMC = assay: Cytokine production (IL-1β, IL-6) at 24 hr by human PBMC incubated with 1 ng/mL LPS; type: cell-based; settings: for inhibition of IL-1β production / inhibition of IL-6 production: free steroid payloads, serial dilutions, 1 ng/mL LPS, 24 hr
Method: (§1) FIG. 51: INX-SM-3, INX-SM-4, and INX-SM-1 inhibit IL-1β (left) and IL-6 (right) production. Cytokine levels were measured at 24 hr for human PBMCS incubated with 1 ng/mL LPS and serial dilutions (1000-1 nM) of steroid payloads, with the no treatment control plotted on the log-scale x-axis at <1 nM; n=1 donor, standard deviation plotted from technical duplicates.
as §1, with “52: INX-SM-1,” for “51:”, “INX-SM-4” for “INX-SM-4,”, “INX-SM-6” for “INX-SM-1”, “IL-1β” for “IL-1β (left) and IL-6 (right)”, “levels” for “levels were”, “ng/ml” for “ng/mL”
(§2) FIG. 53: INX-SM-9, INX-SM-31 and INX-SM-35 inhibit IL-1β (top) and IL-6 (bottom) production. Cytokine levels measured at 24 hr for human PBMCS incubated with 1 ng/mL LPS and serial dilutions (1000-0.2 nM) of steroid payloads, with the no treatment control plotted on the log-scale x-axis at <0.2 nM; n=2 donors-representative donor shown. Standard deviation plotted from technical duplicates.
as §2, with “54: INX-SM-32 inhibits” for “53: INX-SM-9, INX-SM-31 and INX-SM-35 inhibit”, “(500-1” for “(1000-0.2”, “<1” for “<0.2”, “n=2. Representative” for “n=2 donors-representative”
Cytokine levels measured at 24 hr for human PBMCS incubated with 1 ng/ml LPS and serial dilutions (1000-0.5 nM) of steroid payloads, with the no treatment control plotted on the log-scale x-axis at <0.5 nM; n=1 donor, standard deviation plotted from technical duplicates.
FIG. 56: INX-SM-2 and INX-SM-7 show inhibition in IL-1β. Average Cytokine levels measured at 24 hr for human PBMCS incubated with 1 ng/ml LPS and serial dilutions (1000-0.16 nM) of steroid payloads, with the no treatment control plotted on the log-scale x-axis at <0.16 nM; n=1, standard deviation plotted from technical duplicates. […]
Average cytokine levels measured at 24 hr for human PBMC incubated with 1 ng/ml LPS and serial dilutions (100-0.032 nM) of glucocorticoid payloads; n=1, mean of technical duplicates.
Average cytokine levels measured at 24 hr for human PBMC incubated with 1 ng/mL LPS and serial dilutions (1000-0.32 nM) of glucocorticoid payloads; n=1, mean of technical duplicates.
Cytokine levels measured at 24 hr for human PBMC incubated with 1 ng/mL LPS and serial dilutions (1000-0.5 nM) of steroid payloads, with the no treatment control plotted on the log-scale x-axis at <0.5 nM; n=1 donor, mean of technical duplicates plotted.
Average cytokine levels for A. hull-1β B. huIL-6 measured at 24 hr for human PBMC incubated with 1 ng/mL LPS and serial dilutions (1000-0.16 nM) of conjugated steroid linker payloads, with the no treatment control plotted on the log-scale x-axis at <0.16 nM; n=1, standard deviation plotted from technical duplicates. Values above the ULOQ (12,500 pg/mL for IL-1b and 150,000 pg/mL for IL-6) were plotted as the extrapolated value.
Average cytokine levels for IL-1β measured at 24 hr for human PBMC incubated with 1 ng/mL LPS and serial dilutions (1000-0.16 nM) of conjugated steroid linker payloads, with the no treatment control plotted on the log-scale x-axis at <0.16 nM; n=1, mean plotted of technical duplicates
Average cytokine levels for IL-1β measured at 24 hr for human PBMC incubated with 1 ng/mL LPS and serial dilutions (1000-0.16 nM) of conjugated steroid linker payloads, with the no treatment control plotted on the log-scale x-axis at <0.16 nM; n=1, mean plotted of technical duplicates.
FIG. 66: Analogs of INX V are potent relative to INX231J. […]

[2] = Experiment 1: free payload 1000-1 nM, 1 ng/ml LPS, n=1 donor
[3] = Experiment 2: free payload 1000-1 nM, n=1 donor
[4] = Experiment 6: free payload 1000-0.16 nM

SMILES | inhibition of IL-1β production [1, 3] | inhibition of IL-1β production (human PBMC) | inhibition of IL-6 production (human PBMC) | further results
C[C@]12C=CC(=O)C=C1[C@@H](F)C[C@H]1[C@@H]3C[C@H]4O[C@@H](c5ccc(CC6CC7(C6)CC(NC(=O)[C@H](CCC(=O)O)NC(=O)CNC(=O)CBr)C7)cc5)O[C@@]4(C(=O)CO)[C@@]3(C)C[C@H](O)[C@@]12F (stereo partly drawn) [INX A23, (S)-4-(2-(2-bromoacetamido)acetamido)-5-((6-(4-((2S,6aS,6bR,7S,8aS,8bS,10R,11aR,12aS,12bS)-2,6b-difluoro-7-hydroxy-8b-(2-hydroxyacetyl)-6a,8a-dimethyl-4-oxo-2,4,6a,6b,7,8,8a,8b,11a,12,12a,12b-dodecahydro-1H-naphtho[2′,1′:4,5]indeno[1,2-d][1,3]dioxol-10-yl)benzyl)spiro[3.3]heptan-2-yl)amino)-5-oxopentanoic acid] |  |  |  | potency of conjugated linker payloads over INX J (conclusions) [1]: enhanced potency; potency in reducing IL-1β production (human PBMC; anti-VISTA conjugates, serial dilutions with respect to total ADC concentration (20-0.003 μg/mL), equivalent or reduced DAR): enhanced potency
C[C@]12C=CC(=O)C=C1CC[C@@H]1[C@@H]2[C@@H](O)C[C@@]2(C)[C@H]1C[C@H]1O[C@@H](c3ccc(Cc4cnc(N)s4)cc3)O[C@]12C(=O)CO [INX-SM-1, (6aR,6bS,7S,8aS,8bS,10R,11aR,12aS,12bS)-10-(4-((2-aminothiazol-5-yl)methyl)phenyl)-7-hydroxy-8b-(2-hydroxyacetyl)-6a,8a-dimethyl-1,2,6a,6b,7,8,8a,8b,11a,12,12a,12b-dodecahydro-4H-naphtho[2′,1′:4,5]indeno[1,2-d][1,3]dioxol-4-one] | show inhibition in IL-1β production | inhibit | inhibit | inhibition of IL-1β and IL-6 production [1, 2]: inhibit both IL-1β and IL-6 production
C[C@]12C=CC(=O)C=C1CC[C@@H]1[C@@H]2[C@@H](O)C[C@@]2(C)[C@H]1C[C@H]1O[C@@H](c3ccc(Cc4csc(N)n4)cc3)O[C@]12C(=O)CO [INX-SM-2, (6aR,6bS,7S,8aS,8bS,10R,11aR,12aS,12bS)-10-(4-((2-aminothiazol-4-yl)methyl)phenyl)-7-hydroxy-8b-(2-hydroxyacetyl)-6a,8a-dimethyl-1,2,6a,6b,7,8,8a,8b,11a,12,12a,12b-dodecahydro-4H-naphtho[2′,1′:4,5]indeno[1,2-d][1,3]dioxol-4-one] |  | inhibition |  | inhibition of IL-1β production [1, 4]: dose-dependent inhibition in IL-1β production
C[C@]12C=CC(=O)C=C1CC[C@@H]1[C@@H]2[C@@H](O)C[C@@]2(C)[C@H]1C[C@H]1O[C@@H](C34CC(Cc5cccc(N)c5)(C3)C4)O[C@]12C(=O)CO [INX-SM-4, (6aR,6bS,7S,8aS,8bS,10R,11aR,12aS,12bS)-10-(3-(3-aminobenzyl)bicyclo[1.1.1]pentan-1-yl)-7-hydroxy-8b-(2-hydroxyacetyl)-6a,8a-dimethyl-1,2,6a,6b,7,8,8a,8b,11a,12,12a,12b-dodecahydro-4H-naphtho[2′,1′:4,5]indeno[1,2-d][1,3]dioxol-4-one] | show inhibition in IL-1β production | inhibit | inhibit | inhibition of IL-1β and IL-6 production [1, 2]: inhibit both IL-1β and IL-6 production
C[C@]12C=CC(=O)C=C1CC[C@@H]1[C@@H]2[C@@H](O)C[C@@]2(C)[C@H]1C[C@H]1O[C@@H](c3cnc(Cc4cccc(N)c4)s3)O[C@]12C(=O)CO [INX-SM-6] | show inhibition in IL-1β production | inhibit |  | 
C[C@]12C=CC(=O)C=C1CC[C@@H]1[C@@H]2[C@@H](O)C[C@@]2(C)[C@H]1C[C@H]1O[C@@H](c3ccc(Cc4ncc(N)s4)cc3)O[C@]12C(=O)CO [INX-SM-7, (6aR,6bS,7S,8aS,8bS,10R,11aR,12aS,12bS)-10-(4-((5-aminothiazol-2-yl)methyl)phenyl)-7-hydroxy-8b-(2-hydroxyacetyl)-6a,8a-dimethyl-1,2,6a,6b,7,8,8a,8b,11a,12,12a,12b-dodecahydro-4H-naphtho[2′,1′:4,5]indeno[1,2-d][1,3]dioxol-4-one] |  | inhibition |  | inhibition of IL-1β production [1, 4]: dose-dependent inhibition in IL-1β production
C[C@]12C=CC(=O)C=C1CC[C@@H]1[C@@H]2[C@@H](O)C[C@@]2(C)[C@H]1C[C@H]1O[C@@H](c3ccc(CC45C6C7C4C4C5C6C74N)cc3)O[C@]12C(=O)CO (stereo partly drawn) [INX-SM-9, (6aR,6bS,7S,8aS,8bS,10R,11aR,12aS,12bS)-10-(4-((4-aminocuban-1-yl)methyl)phenyl)-7-hydroxy-8b-(2-hydroxyacetyl)-6a,8a-dimethyl-1,2,6a,6b,7,8,8a,8b,11a,12,12a,12b-dodecahydro-4H-naphtho[2′,1′:4,5]indeno[1,2-d][1,3]dioxol-4-one] |  | inhibit | inhibit | inhibition of IL-1β production ([1]; Experiment 3: free payload 1000-0.2 nM, n=2 donors): dose dependent inhibition in IL-1β production
C[C@]12C=CC(=O)C=C1CC[C@@H]1[C@@H]2[C@@H](O)C[C@@]2(C)[C@H]1C[C@H]1O[C@@H](c3ccc(CC45CCC(N)(CC4)CC5)cc3)O[C@]12C(=O)CO [INX-SM-10, (6aR,6bS,7S,8aS,8bS,11aR,12aS,12bS)-10-(4-((4-aminobicyclo[2.2.2]octan-1-yl)methyl)phenyl)-7-hydroxy-8b-(2-hydroxyacetyl)-6a,8a-dimethyl-1,2,6a,6b,7,8,8a,8b,11a,12,12a,12b-dodecahydro-4H-naphtho[2′,1′:4,5]indeno[1,2-d][1,3]dioxol-4-one] |  | robust inhibition | robust inhibition | inhibition of IL-1β and IL-6 production ([1]; Experiment 5: free payload 1000-0.5 nM): robust inhibition in IL-1β (top) and IL-6 (bottom) production
C[C@]12C=CC(=O)C=C1CC[C@@H]1[C@@H]2[C@@H](O)C[C@@]2(C)[C@H]1C[C@H]1CN(Cc3ccc(CC45CC(N)(C4)C5)cc3)C[C@]12C(=O)CO [INX-SM-17, (6aR,6bS,7S,8aS,8bS,11aR,12aS,12bS)-10-(4-((3-aminobicyclo[1.1.1]pentan-1-yl)methyl)benzyl)-7-hydroxy-8b-(2-hydroxyacetyl)-6a,8a-dimethyl-1,6a,6b,7,8,8a,8b,9,10,11,11a,12,12a,12b-tetradecahydronaphtho[2′,1′:4,5]indeno[1,2-c]pyrrol-4 (2H)-one 2,2,2-trifluoroacetate] |  | weakly inhibits |  | inhibition of IL-1β and IL-6 ([1]; Experiment 12: free payloads 1000-0.15 nM): only weakly inhibit IL-1β
